Assay results reported in US8686224B2, “Plant defense signal peptides” (priority 2005, dated 2014).
“And” between values parts separate entries of the source, which are not always exact repeats. Identical values can stand only once. “Also recorded” adds a separate entry of the source.

Columns and labels:
[1] = test system: Arabidopsis suspension cultured cells; assay: Alkalinization assay with Arabidopsis suspension cultured cells; assay type: cell-based, Arabidopsis thaliana; conditions: Arabidopsis suspension cultured cells, pH of media after 20 min
Protocol: For the alkalinization assay, cells suspensions are grown in a volume of 40 ml in a 125 ml flask. Tobacco and Arabidopsis cells are typically grown for 3-5 days before use. Tomato cells are typically grown for 4-7 days before use. Soybean cells are generally grown for 3-7 days before use. Preferably, cells are in mid to log or log phase when they are to be used for the alkalinization assay. A 1 ml pipette tip with the end cut off (to prevent clogging of the tip with the cells) is used to aliquot 1 ml of the cells from the suspension into a well in a 24-well culture cluster plate. The flask is swirled between aliquots to ensure that the cells remain evenly dispersed throughout the cell suspension and an roughly equivalent number of cells is provided to each well. The plate(s) are then shaken at 160 rpm for 1 hour. Small aliquots ([…]) of extracted peptide fractions are then added to the wells. After 20 min, the pH of the cell media is measured and recorded.
Alkalinization Assay. Arabidopsis suspension cells were grown with shaking in the dark in 125 mL flasks, using 40 mL NT media as previously described (Pearce et al. Proc. Natl. Acad. Sci. USA 98:12843-12847, 2001). The cells were transferred weekly (2.5 mL) and used for assays 3-5 days after transfer. One mL aliquots of cells were transferred to wells of 24-well culture plates and allowed to equilibrate for one hour while agitated on a rotary shaker at 160 rpm. Aliquots of 1-10 μL from extracts or fractions eluted from HPLC columns were added to cells and the pH of the media was monitored after 20 min.
Alkalinization assay. Medium alkalinization activity of Arabidopsis suspension cultured cells by AtPep1 analogs was analyzed as previously described for systemin (Pearce et al., Science 253:895-897, 1991), RALF (Pearce et al. Proc. Natl. Acad. Sci. USA 98:12843-12847, 2001), HypSys peptides (Pearce and Ryan. J. Biol. Chem. 278:30044-30050, 2003; Pearce et al., Nature 411:817-820, 2001), and AtPep1 (supra). The alkalinization activity of azido-Cys-AtPep1 were carried out after incubation the analog with cells in darkness for 10 min, when the pH was recorded.
Analogs of AtPep1 from the C-terminus of AtPep1 were synthesized and assayed in the alkalinization assay. One mL aliquots of 4 day old Arabidopsis cells were allowed to equilibrate on an orbital shaker at 180 rpm for one hour. A 10 μL aliquot of each peptide solution was added to the cells. Peptide concentrations of 0.25 nM, 2.5 nM, and 25 nM were tested. After 20 min, the pH of the media was recorded.
The 15-mer from the carboxy-terminus of AtPep1 ([…] (SEQ ID NO: 78)) was substituted with alanine at each position to assess which amino acids were necessary for the alkalinizing activity. […] The set of substituted 15-mer peptides was assayed using four-day-old Arabidopsis cells. […] of each peptide (2.5 pmoles) was added to 1 ml of cells to make a final concentration of 2.5 nM. After 20 min, the pH of the media was recorded. The data is the average of three separate experiments.

AtPEPR2 = biological target: T1, AtPEPR2 (Arabidopsis thaliana, UniProt Q9FZ59); assay: Medium alkalinization of transgenic tobacco cells expressing AtPEPR2; assay type: cell-based
T1 construct: the AtPEPR2 coding region was fused to the CaMV 35S promoter and introduced into tobacco suspension-cultured cells; expressed in transfected cells; host or cells: tobacco suspension-cultured cells, transformed by Agrobacterium, kanamycin-selected
T1 sequence (Q9FZ59 27-1088): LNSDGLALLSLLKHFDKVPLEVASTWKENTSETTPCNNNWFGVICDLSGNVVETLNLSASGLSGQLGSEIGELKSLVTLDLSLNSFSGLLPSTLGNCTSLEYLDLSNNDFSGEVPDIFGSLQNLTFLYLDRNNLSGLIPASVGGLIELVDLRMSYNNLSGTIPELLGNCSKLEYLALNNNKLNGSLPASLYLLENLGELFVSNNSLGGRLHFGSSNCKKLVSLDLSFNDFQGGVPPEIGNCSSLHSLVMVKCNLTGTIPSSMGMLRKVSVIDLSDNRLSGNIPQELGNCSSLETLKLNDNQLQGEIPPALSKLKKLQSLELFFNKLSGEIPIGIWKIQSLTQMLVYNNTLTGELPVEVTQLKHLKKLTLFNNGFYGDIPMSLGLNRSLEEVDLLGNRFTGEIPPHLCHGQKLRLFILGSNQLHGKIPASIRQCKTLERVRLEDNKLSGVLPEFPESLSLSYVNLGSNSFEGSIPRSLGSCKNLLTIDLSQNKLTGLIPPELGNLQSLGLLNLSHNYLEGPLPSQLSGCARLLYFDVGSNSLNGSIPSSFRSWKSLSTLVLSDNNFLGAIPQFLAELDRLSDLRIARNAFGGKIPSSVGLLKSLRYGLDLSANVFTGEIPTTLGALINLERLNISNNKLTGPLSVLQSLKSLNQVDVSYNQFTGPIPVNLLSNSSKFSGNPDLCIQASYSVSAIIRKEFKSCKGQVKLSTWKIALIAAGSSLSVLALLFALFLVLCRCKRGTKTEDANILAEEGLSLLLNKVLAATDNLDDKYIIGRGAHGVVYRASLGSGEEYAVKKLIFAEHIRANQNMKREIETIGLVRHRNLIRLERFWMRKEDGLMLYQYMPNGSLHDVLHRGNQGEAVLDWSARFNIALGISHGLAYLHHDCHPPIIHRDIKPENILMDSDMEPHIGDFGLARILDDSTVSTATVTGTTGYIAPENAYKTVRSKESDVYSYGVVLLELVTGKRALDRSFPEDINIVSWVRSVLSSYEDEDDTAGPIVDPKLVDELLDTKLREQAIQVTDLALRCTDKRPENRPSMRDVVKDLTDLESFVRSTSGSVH
Protocol: To clarify whether AtPEPR2 binds to AtPep1, the AtPEPR2 coding region was fused to the CaMV 35S promoter and introduced into tobacco suspension-cultured cells by Agrobacterium. Tobacco cells expressing AtPEPR1 and GUS genes were also created as positive and negative controls, respectively. […] These transgenic lines were analyzed for alkalinizing activity as previously described (Pearce et al., Proc. Natl. Acad. Sci. USA 98, 12843-12847, 2001).
The response to all AtPep peptides in transgenic tobacco cells expressing either AtPEPR1 or AtPEPR2 was analyzed by the medium alkalinization assay.

[2] = test system: AtPEPR1 and AtPEPR2 transcripts; assay: Expression analysis of AtPEPR1 and AtPEPR2 (Northern hybridization, quantitative RT-PCR); assay type: in vivo, Arabidopsis thaliana; conditions: within 30 min
Protocol: Expression analysis of AtPEPR1 and AtPEPR2. […] In order to elucidate the role of AtPEPR2 in AtPeps signal transduction, the gene expression patterns were analyzed in comparison with AtPEPR1.

[3] = AtPEPR2 expressing tobacco cells

H-ATKVKAKQRGKEKVSSGRPGQHN-OH [AtPep1] was tested, and the “activity in the alkalinization assay” value [1] was “at sub-nanomolar concentrations, to cause an alkalinization response; also recorded: as active as the native AtPep1; also recorded: identical activities as the native peptides”, the EC50 ([1]; read-out: half-maximal activity in the alkalinization assay) was 0.25 nM and the EC50 (AtPEPR2) was about 0.25 nM. For the same substance, the “alkalinization of the medium” value (AtPEPR2; [3]) was “caused alkalinization of the media”, the maximal change (AtPEPR2; [3]) was 1-1.2 pH units and 1.2 pH units and the “induction of AtPEPR1 and AtPEPR2 transcripts” value [2] was “strong inducer”.
